Data published in ChEMBL document CHEMBL1201862, “PubChem BioAssay data set” (2004).
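Where inhibition never reached the appropriate level, the endpoint shown equals the highest concentration tested. Otherwise, values were interpolated linearly from a five-concentration, 48-hour dose response in 96-well plates. GI50 is the concentration that inhibits growth by half.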 Active and inactive are the calls of the source. Cut-off read from the data, not from the text of the source: active = GI50 up to about 1.1 µM and inactive = higher.

Legend:
Assay in all cases: DTP human tumour cell line panel, 48 h
A498 = test system: A498
A549 = test system: A549
ACHN = test system: ACHN
CCRF-CEM = test system: CCRF-CEM
DMS-273 = test system: DMS-273
EKVX = test system: EKVX
HCT-116 = test system: HCT-116
HL-60 = test system: HL-60
HOP-62 = test system: HOP-62
HOP-92 = test system: HOP-92
HT-29 = test system: HT-29
IGROV-1 = test system: IGROV-1
KM12 = test system: KM12
M14 = test system: M14
M19-MEL = test system: M19-MEL
MOLT-4 = test system: MOLT-4
NCI-H226 = test system: NCI-H226
NCI-H23 = test system: NCI-H23
NCI-H460 = test system: NCI-H460
NCI-H522 = test system: NCI-H522
OVCAR-5 = test system: OVCAR-5
OVCAR-8 = test system: OVCAR-8
RXF 393 = test system: RXF 393
RXF 631 = test system: RXF 631
SF-295 = test system: SF-295
SK-MEL-28 = test system: SK-MEL-28
SK-OV-3 = test system: SK-OV-3
SNB-19 = test system: SNB-19
SNB-78 = test system: SNB-78
SR = test system: SR
TK-10 = test system: TK-10
U-251 = test system: U-251
UACC-257 = test system: UACC-257
UO-31 = test system: UO-31
786-0 = test system: 786-0
CAKI-1 = test system: CAKI-1
COLO 205 = test system: COLO 205
DLD-1 = test system: DLD-1
DMS-114 = test system: DMS-114
HCC 2998 = test system: HCC 2998
HCT-15 = test system: HCT-15
HOP-18 = test system: HOP-18
K562 = test system: K562
KM-20L2 = test system: KM-20L2
LOX IMVI = test system: LOX IMVI
LXFL 529 = test system: LXFL 529
Malme-3M = test system: Malme-3M
OVCAR-3 = test system: OVCAR-3
OVCAR-4 = test system: OVCAR-4
RPMI-8226 = test system: RPMI-8226
SF-539 = test system: SF-539
SK-MEL-2 = test system: SK-MEL-2
SK-MEL-5 = test system: SK-MEL-5
SN12C = test system: SN12C
SNB-75 = test system: SNB-75
SW-620 = test system: SW-620
UACC-62 = test system: UACC-62
XF498 = test system: XF498
SF-268 = test system: SF-268

CCCC(=O)OCC1OC2OC(C)(C)OC2C2OC(C)(C)OC12 (stereo unspecified)
GI50 (A498): > 100 µM (inactive)
GI50 (A549): > 100 µM (inactive)
GI50 (ACHN): > 100 µM (inactive)
GI50 (CCRF-CEM): > 100 µM (inactive)
GI50 (DMS-273): > 100 µM (inactive)
GI50 (EKVX): > 100 µM (inactive)
GI50 (HCT-116): > 100 µM (inactive)
GI50 (HL-60): > 100 µM (inactive)
GI50 (HOP-62): > 100 µM (inactive)
GI50 (HOP-92): > 100 µM (inactive)
GI50 (HT-29): > 100 µM (inactive)
GI50 (IGROV-1): > 100 µM (inactive)
GI50 (KM12): > 100 µM (inactive)
GI50 (M14): > 100 µM (inactive)
GI50 (M19-MEL): > 100 µM (inactive)
GI50 (MOLT-4): > 100 µM (inactive)
GI50 (NCI-H226): 19 µM (inactive)
GI50 (NCI-H23): > 100 µM (inactive)
GI50 (NCI-H460): > 100 µM (inactive)
GI50 (NCI-H522): > 100 µM (inactive)
GI50 (OVCAR-5): > 100 µM (inactive)
GI50 (OVCAR-8): > 100 µM (inactive)
GI50 (RXF 393): > 100 µM (inactive)
GI50 (RXF 631): > 100 µM (inactive)
GI50 (SF-295): > 100 µM (inactive)
GI50 (SK-MEL-28): > 100 µM (inactive)
GI50 (SK-OV-3): > 100 µM (inactive)
GI50 (SNB-19): > 100 µM (inactive)
GI50 (SNB-78): > 100 µM (inactive)
GI50 (SR): > 100 µM (inactive)
GI50 (TK-10): 23.6 µM (inactive)
GI50 (U-251): > 100 µM (inactive)
GI50 (UACC-257): > 100 µM (inactive)
GI50 (UO-31): > 100 µM (inactive)

COc1nc(NC2OC(COC(C)=O)C(OC(C)=O)C(OC(C)=O)C2OC(C)=O)c2c(OC(C)=O)cc(=O)oc2n1 (stereo unspecified)
GI50 (786-0): > 100 µM (inactive)
GI50 (A498): 15.9 µM (inactive)
GI50 (A549): > 100 µM (inactive)
GI50 (ACHN): 12.5 µM (inactive)
GI50 (CAKI-1): > 100 µM (inactive)
GI50 (CCRF-CEM): > 100 µM (inactive)
GI50 (COLO 205): > 100 µM (inactive)
GI50 (DLD-1): > 100 µM (inactive)
GI50 (DMS-114): > 100 µM (inactive)
GI50 (DMS-273): > 100 µM (inactive)
GI50 (EKVX): > 100 µM (inactive)
GI50 (HCC 2998): > 100 µM (inactive)
GI50 (HCT-116): > 100 µM (inactive)
GI50 (HCT-15): > 100 µM
GI50 (HL-60): > 100 µM (inactive)
GI50 (HOP-18): > 100 µM (inactive)
GI50 (HOP-62): > 100 µM (inactive)
GI50 (HOP-92): > 100 µM (inactive)
GI50 (HT-29): > 100 µM (inactive)
GI50 (IGROV-1): > 100 µM (inactive)
GI50 (K562): > 100 µM (inactive)
GI50 (KM-20L2): > 100 µM (inactive)
GI50 (KM12): > 100 µM (inactive)
GI50 (LOX IMVI): > 100 µM (inactive)
GI50 (LXFL 529): > 100 µM (inactive)
GI50 (M14): > 100 µM (inactive)
GI50 (M19-MEL): > 100 µM (inactive)
GI50 (MOLT-4): > 100 µM (inactive)
GI50 (Malme-3M): > 100 µM (inactive)
GI50 (NCI-H226): > 100 µM (inactive)
GI50 (NCI-H23): > 100 µM (inactive)
GI50 (NCI-H460): 13.8 µM (inactive)
GI50 (OVCAR-3): > 100 µM (inactive)
GI50 (OVCAR-4): > 100 µM (inactive)
GI50 (OVCAR-5): > 100 µM (inactive)
GI50 (OVCAR-8): > 100 µM (inactive)
GI50 (RPMI-8226): > 100 µM (inactive)
GI50 (RXF 393): > 100 µM (inactive)
GI50 (SF-295): > 100 µM (inactive)
GI50 (SF-539): > 100 µM (inactive)
GI50 (SK-MEL-2): > 100 µM (inactive)
GI50 (SK-MEL-5): > 100 µM (inactive)
GI50 (SK-OV-3): > 100 µM (inactive)
GI50 (SN12C): > 100 µM (inactive)
GI50 (SNB-19): > 100 µM (inactive)
GI50 (SNB-75): > 100 µM (inactive)
GI50 (SNB-78): > 100 µM (inactive)
GI50 (SW-620): > 100 µM (inactive)
GI50 (TK-10): > 100 µM (inactive)
GI50 (U-251): > 100 µM (inactive)
GI50 (UACC-257): > 100 µM (inactive)
GI50 (UACC-62): > 100 µM (inactive)
GI50 (UO-31): > 100 µM (inactive)
GI50 (XF498): > 100 µM (inactive)

Cc1ccc(C)c(N2C/C(=N\NC(=O)CC#N)C(c3nc4ccccc4s3)C(=O)C2=O)c1 (stereo unspecified)
GI50 (786-0): > 100 µM (inactive)
GI50 (A498): > 100 µM (inactive)
GI50 (A549): > 100 µM (inactive)
GI50 (ACHN): > 100 µM (inactive)
GI50 (CAKI-1): > 100 µM (inactive)
GI50 (CCRF-CEM): > 100 µM (inactive)
GI50 (COLO 205): > 100 µM (inactive)
GI50 (DLD-1): > 100 µM (inactive)
GI50 (DMS-114): > 100 µM (inactive)
GI50 (DMS-273): > 100 µM (inactive)
GI50 (EKVX): > 100 µM (inactive)
GI50 (HCC 2998): > 100 µM (inactive)
GI50 (HCT-116): > 100 µM (inactive)
GI50 (HCT-15): > 100 µM
GI50 (HL-60): > 100 µM (inactive)
GI50 (HOP-18): > 100 µM (inactive)
GI50 (HOP-62): > 100 µM (inactive)
GI50 (HOP-92): > 100 µM (inactive)
GI50 (HT-29): > 100 µM (inactive)
GI50 (IGROV-1): > 100 µM (inactive)
GI50 (KM-20L2): > 100 µM (inactive)
GI50 (KM12): > 100 µM (inactive)
GI50 (LXFL 529): > 100 µM (inactive)
GI50 (M14): > 100 µM (inactive)
GI50 (M19-MEL): > 100 µM (inactive)
GI50 (MOLT-4): > 100 µM (inactive)
GI50 (Malme-3M): > 100 µM (inactive)
GI50 (NCI-H226): > 100 µM (inactive)
GI50 (NCI-H23): > 100 µM (inactive)
GI50 (NCI-H460): > 100 µM (inactive)
GI50 (NCI-H522): > 100 µM (inactive)
GI50 (OVCAR-3): > 100 µM (inactive)
GI50 (OVCAR-4): > 100 µM (inactive)
GI50 (OVCAR-8): > 100 µM (inactive)
GI50 (RXF 393): > 100 µM (inactive)
GI50 (SF-268): > 100 µM (inactive)
GI50 (SF-295): > 100 µM (inactive)
GI50 (SK-MEL-28): > 100 µM (inactive)
GI50 (SK-MEL-2): > 100 µM (inactive)
GI50 (SK-MEL-5): > 100 µM (inactive)
GI50 (SK-OV-3): > 100 µM (inactive)
GI50 (SN12C): > 100 µM (inactive)
GI50 (SNB-19): > 100 µM (inactive)
GI50 (SNB-75): > 100 µM (inactive)
GI50 (SNB-78): > 100 µM (inactive)
GI50 (SR): > 100 µM (inactive)
GI50 (SW-620): > 100 µM (inactive)
GI50 (TK-10): > 100 µM (inactive)
GI50 (U-251): > 100 µM (inactive)
GI50 (UACC-257): > 100 µM (inactive)
GI50 (UACC-62): > 100 µM (inactive)
GI50 (UO-31): > 100 µM (inactive)
GI50 (XF498): > 100 µM (inactive)
